Results published in patent US20240391931A1 (Bristol-Myers Squibb Company, priority 2021, published 2024).

The compounds below were run against HER2YVMA (Homo sapiens, UniProt P04626, INS775YVMA) (assay: Enzymatic assay HER2YVMA (method b)). Conditions: [HER2YVMA]=5 nM, [ATP]=25 μM, [Peptide 22]=1 μM.
Assay type: biochemical
Design: purchased Viva biotech, Shanghai, China custom purification
How it was run: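 Microfluidic mobility-shift kinase assay with Peptide 22 (1 μM) in HEPES pH 7.5, MnCl2, MgCl2, Tween 20, TCEP. HER2 WT 12.5 nM and HER2 YVMA 5 nM each used 25 μM ATP; EGFR WT 2 nM used 1 mM ATP. IC50 came from initial-velocity (0–3600 s) percent inhibition, fitted to a variable-slope model.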

HER2YVMA, sequence (P04626 with tags, fused parts or gaps INS775YVMA): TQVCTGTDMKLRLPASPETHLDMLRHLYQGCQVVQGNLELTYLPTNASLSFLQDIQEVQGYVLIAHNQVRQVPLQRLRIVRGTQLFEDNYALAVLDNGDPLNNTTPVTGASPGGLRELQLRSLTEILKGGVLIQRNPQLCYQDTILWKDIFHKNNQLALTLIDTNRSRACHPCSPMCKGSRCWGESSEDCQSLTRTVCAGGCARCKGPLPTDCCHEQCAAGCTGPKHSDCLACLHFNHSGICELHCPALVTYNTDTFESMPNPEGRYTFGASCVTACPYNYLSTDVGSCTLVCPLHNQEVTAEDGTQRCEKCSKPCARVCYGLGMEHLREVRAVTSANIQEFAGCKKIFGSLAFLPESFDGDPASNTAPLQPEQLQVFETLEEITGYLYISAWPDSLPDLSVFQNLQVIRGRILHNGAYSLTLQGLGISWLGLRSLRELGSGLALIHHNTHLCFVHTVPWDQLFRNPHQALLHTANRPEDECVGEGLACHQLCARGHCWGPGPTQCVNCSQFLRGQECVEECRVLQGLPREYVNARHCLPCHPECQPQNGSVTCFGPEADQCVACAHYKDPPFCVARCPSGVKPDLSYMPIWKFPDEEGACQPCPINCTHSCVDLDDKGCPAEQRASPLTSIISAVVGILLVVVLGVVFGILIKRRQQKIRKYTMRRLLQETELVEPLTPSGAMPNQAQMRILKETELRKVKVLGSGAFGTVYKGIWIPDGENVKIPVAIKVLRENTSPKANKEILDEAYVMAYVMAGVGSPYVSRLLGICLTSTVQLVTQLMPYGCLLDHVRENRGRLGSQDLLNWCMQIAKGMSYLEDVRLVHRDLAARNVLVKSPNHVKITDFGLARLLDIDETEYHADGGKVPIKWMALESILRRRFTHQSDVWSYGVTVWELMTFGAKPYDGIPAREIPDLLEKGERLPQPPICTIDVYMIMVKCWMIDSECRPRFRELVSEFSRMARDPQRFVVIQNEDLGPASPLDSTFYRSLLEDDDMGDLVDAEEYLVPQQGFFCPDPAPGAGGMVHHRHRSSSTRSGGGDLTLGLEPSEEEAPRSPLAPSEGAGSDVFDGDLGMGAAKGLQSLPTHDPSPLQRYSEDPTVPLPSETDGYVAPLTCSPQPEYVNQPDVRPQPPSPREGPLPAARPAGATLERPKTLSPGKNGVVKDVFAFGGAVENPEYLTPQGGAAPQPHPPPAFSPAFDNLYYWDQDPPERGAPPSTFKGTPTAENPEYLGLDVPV

Row | Structure (SMILES) | IC50 [nM]
1 | Cc1cc(Nc2ncnc3sc4c(c23)CCN(C(=O)/C=C/CN(C)C)C4)ccc1Oc1ccc2ncnn2c1 [Compound 3, (E)-1-(4-((4-([1,2,4]triazolo[1,5-a]pyridin-6-yloxy)-3-methylphenyl)amino)-5,8-dihydropyrido[4′,3′:4,5]thieno[2,3-d]pyrimidin-7(6H)-yl)-4-(dimethylamino)but-2-en-1-one] | 100 to 1000
2 | Cc1ncc(Oc2ccc(Nc3ncnc4sc5c(c34)CCN(C(=O)/C=C/CN(C)C)C5)cc2C)cn1 [Compound 21, (E)-4-(dimethylamino)-1-(4-((3-methyl-4-((2-methylpyrimidin-5-yl)oxy)phenyl)amino)-5,8-dihydropyrido[4′,3′:4,5]thieno[2,3-d]pyrimidin-7(6H)-yl)but-2-en-1-one] | 100 to 1000
3 | Cc1ccc(Oc2ccc(Nc3ncnc4sc5c(c34)CCN(C(=O)/C=C/CN3CC(O)CO3)C5)cc2C)cn1 (stereo not shown) [Compound 43] | 100 to 1000
4 | Cc1ccc(Oc2ccc(Nc3ncnc4sc5c(c34)CCN(C(=O)/C=C/CN3C4CCC3CC4)C5)cc2C)cn1 [Compound 44] | < 100
5 | CCN1CCN(C/C=C/C(=O)N2CCc3c(sc4ncnc(Nc5ccc(Oc6ccc(C)nc6)c(C)c5)c34)C2)CC1 [Compound 46] | 100 to 1000
6 | CC(=O)N1CCN(C/C=C/C(=O)N2CCc3c(sc4ncnc(Nc5ccc(Oc6ccc(C)nc6)c(C)c5)c34)C2)CC1 [Compound 51] | 100 to 1000
7 | Cc1ccc(Oc2ccc(Nc3ncnc4sc5c(c34)CCN(C(=O)/C=C/CN3CC=CCC3)C5)cc2C)cn1 [Compound 55] | < 100
8 | CON(C)C/C=C/C(=O)N1CCc2c(sc3ncnc(Nc4ccc(Oc5ccc(C)nc5)c(C)c4)c23)C1 [Compound 56] | 100 to 1000
9 | Cc1ccc(Oc2ccc(Nc3ncnc4sc5c(c34)CCN(C(=O)/C=C/CN3CC4(C3)CS(=O)(=O)C4)C5)cc2C)cn1 [Compound 57] | < 100
10 | Cc1ccc(Oc2ccc(Nc3ncnc4sc5c(c34)CCN(C(=O)/C=C/CN3CCN4C(=O)CCC4C3)C5)cc2C)cn1 (stereo not shown) [Compound 58] | 100 to 1000
11 | COCCN1CCN(C/C=C/C(=O)N2CCc3c(sc4ncnc(Nc5ccc(Oc6ccc(C)nc6)c(C)c5)c34)C2)CC1 [Compound 59] | 100 to 1000
12 | Cc1ccc(Oc2ccc(Nc3ncnc4sc5c(c34)CCN(C(=O)/C=C/CN3CCn4cc(C(F)(F)F)nc4C3)C5)cc2C)cn1 [Compound 61] | 1000 to 10000
13 | Cc1ccc(Oc2ccc(Nc3ncnc4sc5c(c34)CCN(C(=O)/C=C/CN3CCC(n4ccnc4)CC3)C5)cc2C)cn1 [Compound 62] | < 100
14 | Cc1cc(Nc2ncnc3sc4c(c23)CCN(C(=O)/C=C/CN(C)C)C4)ccc1Oc1cccc(B(O)O)c1 [Compound 64, (E)-(3-(4-((7-(4-(dimethylamino)but-2-enoyl)-5,6,7,8-tetrahydropyrido[4′,3′:4,5]thieno[2,3-d]pyrimidin-4-yl)amino)-2-methylphenoxy)phenyl)boronic acid] | < 100
15 | Cc1ccc(Oc2ccc(Nc3ncnc4sc5c(c34)CCN(C(=O)/C=C/CNCCO)C5)cc2C)cn1 [Compound 65] | < 100
16 | Cc1ccc(Oc2ccc(Nc3ncnc4sc5c(c34)CCN(C(=O)/C=C/CN3C[C@H]4CC[C@@H](C3)O4)C5)cc2C)cn1 [Compound 66] | < 100
17 | Cc1ccc(Oc2ccc(Nc3ncnc4sc5c(c34)CCN(C(=O)/C=C/CN3CCC4(CCOC4)C3)C5)cc2C)cn1 (stereo not shown) [Compound 67] | < 100

Row | Structure (SMILES) | IC50 [nM]
18 | Cc1ccc(Oc2ccc(Nc3ncnc4sc5c(c34)CCN(C(=O)/C=C/CN[C@H]3CC[C@H](OC4CC4)CC3)C5)cc2C)cn1 [Compound 68] | < 100
19 | Cc1ccc(Oc2ccc(Nc3ncnc4sc5c(c34)CCN(C(=O)/C=C/CN[C@H]3CC[C@H](OC(F)F)CC3)C5)cc2C)cn1 [Compound 69] | < 100
20 | Cc1ccc(Oc2ccc(Nc3ncnc4sc5c(c34)CCN(C(=O)/C=C/CN[C@H]3CC[C@H](OCC(F)(F)F)CC3)C5)cc2C)cn1 [Compound 70] | < 100
21 | Cc1ccc(Oc2ccc(Nc3ncnc4sc5c(c34)CCN(C(=O)/C=C/CNC3CCC(C(=O)N(C)C)CC3)C5)cc2C)cn1 (stereo not shown) [Compound 71] | < 100
22 | Cc1ccc(Oc2ccc(Nc3ncnc4sc5c(c34)CCN(C(=O)/C=C/CNC34CCC(C#N)(CC3)CC4)C5)cc2C)cn1 [Compound 72] | < 100
23 | Cc1ccc(Oc2ccc(Nc3ncnc4sc5c(c34)CCN(C(=O)/C=C/CN[C@H]3CCC[C@H](O)C3)C5)cc2C)cn1 [Compound 73] | < 100
24 | Cc1ccc(Oc2ccc(Nc3ncnc4sc5c(c34)CCN(C(=O)/C=C/CN3CCC(O)C3)C5)cc2C)cn1 (stereo not shown) [Compound 74] | < 100
25 | Cc1ccc(Oc2ccc(Nc3ncnc4sc5c(c34)CCN(C(=O)/C=C/CN[C@@H](C)CO)C5)cc2C)cn1 [Compound 75] | < 100
26 | Cc1ccc(Oc2ccc(Nc3ncnc4sc5c(c34)CCN(C(=O)/C=C/CN3CC4CC4C3)C5)cc2C)cn1 (stereo not shown) [Compound 76] | < 100
27 | Cc1cc(Nc2ncnc3sc4c(c23)CCN(C(=O)/C=C/CN2CC3CC2CO3)C4)ccc1Oc1ccc2ncnn2c1 (stereo not shown) [Compound 77] | 100 to 1000
28 | Cc1cc(Nc2ncnc3sc4c(c23)CCN(C(=O)/C=C/CN(C)C(C)(C)C)C4)ccc1Oc1ccc2ncnn2c1 [Compound 80] | < 100
29 | Cc1cc(Nc2ncnc3sc4c(c23)CCN(C(=O)/C=C/CN2CC3C(CO)C3C2)C4)ccc1Oc1ccc2ncnn2c1 (stereo not shown) [Compound 81] | < 100
30 | Cc1cc(Nc2ncnc3sc4c(c23)CCN(C(=O)/C=C/CN2CC3CC(C3)C2)C4)ccc1Oc1ccc2ncnn2c1 [Compound 82] | < 100
31 | Cc1cc(Nc2ncnc3sc4c(c23)CCN(C(=O)/C=C/CN2CC(C)OC(C)C2C)C4)ccc1Oc1ccc2ncnn2c1 (stereo not shown) [Compound 83] | 100 to 1000
32 | Cc1cc(Nc2ncnc3sc4c(c23)CCN(C(=O)/C=C/CN2CC(C)(C)OC(C)(C)C2)C4)ccc1Oc1ccc2ncnn2c1 [Compound 84] | 100 to 1000
33 | O=C(/C=C/CN1CC2CC(C2)C1)N1CCc2c(sc3ncnc(Nc4ccc(Oc5ccc6ncnn6c5)c(Cl)c4)c23)C1 [Compound 85] | < 100
34 | C=C(CN1CCc2c(sc3ncnc(Nc4ccc(Oc5ccc(C)nc5)c(C)c4)c23)C1)C(=O)OCC [Compound 86, Ethyl 2-((4-((3-methyl-4-((6-methylpyridin-3-yl)oxy)phenyl)amino)-5,8-dihydropyrido[4′,3′:4,5]thieno[2,3-d]pyrimidin-7(6H)-yl)methyl)acrylate] | 1000 to 10000

Second part, the compound after the results:

Row | IC50 [nM] | Structure (SMILES)
35 | < 100 | C=CC(=O)N1CCc2c(sc3ncnc(Nc4ccc(Oc5ccc6ncnn6c5)c(Cl)c4)c23)C1 [Compound 4, 1-(4-((4-([1,2,4]triazolo[1,5-a]pyridin-6-yloxy)-3-chlorophenyl)amino)-5,8-dihydropyrido[4′,3′:4,5]thieno[2,3-d]pyrimidin-7(6H)-yl)prop-2-en-1-one]
36 | < 100 | CN(C)C/C=C/C(=O)N1CCc2c(sc3ncnc(Nc4ccc(Oc5ccc6ncnn6c5)c(Cl)c4)c23)C1 [Compound 5, (E)-1-(4-((4-([1,2,4]triazolo[1,5-a]pyridin-6-yloxy)-3-chlorophenyl)amino)-5,8-dihydropyrido[4′,3′:4,5]thieno[2,3-d]pyrimidin-7(6H)-yl)-4-(dimethylamino)but-2-en-1-one]
37 | < 100 | Cc1cc(Nc2ncnc3sc4c(c23)CCN(C(=O)/C=C/CN2CC3CCC(C3)C2)C4)ccc1Oc1ccc2ncnn2c1 [Compound 20]
38 | < 100 | Cc1cc(Nc2ncnc3sc4c(c23)CCN(C(=O)/C=C/CN(C)C)C4)ccc1Oc1ccc2[nH]ncc2c1 [Compound 22, (E)-1-(4-((4-((1H-indazol-5-yl)oxy)-3-methylphenyl)amino)-5,8-dihydropyrido[4′,3′:4,5]thieno[2,3-d]pyrimidin-7(6H)-yl)-4-(dimethylamino)but-2-en-1-one]
39 | < 100 | Cc1cc(Nc2ncnc3sc4c(c23)CCN(C(=O)/C=C/CN(C)C)C4)ccc1Oc1ccc2cn[nH]c2c1 [Compound 23, (E)-1-(4-((4-((1H-indazol-6-yl)oxy)-3-methylphenyl)amino)-5,8-dihydropyrido[4′,3′:4,5]thieno[2,3-d]pyrimidin-7(6H)-yl)-4-(dimethylamino)but-2-en-1-one]
40 | < 100 | Cc1ccc(Oc2ccc(Nc3ncnc4sc5c(c34)CCN(C(=O)/C=C/CN3CC4CC3CO4)C5)cc2C)cn1 (stereo not shown) [Compound 26]
41 | < 100 | Cc1ccc(Oc2ccc(Nc3ncnc4sc5c(c34)CCN(C(=O)/C=C/CN(CCO)CCO)C5)cc2C)cn1 [Compound 37]
42 | < 100 | Cc1ccc(Oc2ccc(Nc3ncnc4sc5c(c34)CCN(C(=O)/C=C/CNC3COC3)C5)cc2C)cn1 [Compound 38]
43 | < 100 | CNC(=O)CNC/C=C/C(=O)N1CCc2c(sc3ncnc(Nc4ccc(Oc5ccc(C)nc5)c(C)c4)c23)C1 [Compound 39]
44 | < 100 | Cc1ccc(Oc2ccc(Nc3ncnc4sc5c(c34)CCN(C(=O)/C=C/CNC3CC3)C5)cc2C)cn1 [Compound 40]
45 | < 100 | Cc1ccc(Oc2ccc(Nc3ncnc4sc5c(c34)CCN(C(=O)/C=C/CN3CCCC3C(N)=O)C5)cc2C)cn1 (stereo not shown) [Compound 41]
46 | < 100 | Cc1ccc(Oc2ccc(Nc3ncnc4sc5c(c34)CCN(C(=O)/C=C/CNCCS(C)(=O)=O)C5)cc2C)cn1 [Compound 45]
47 | < 100 | Cc1ccc(Oc2ccc(Nc3ncnc4sc5c(c34)CCN(C(=O)/C=C/CNC3CCOC3)C5)cc2C)cn1 (stereo not shown) [Compound 47]
48 | < 100 | Cc1ccc(Oc2ccc(Nc3ncnc4sc5c(c34)CCN(C(=O)/C=C/CNCC3CN(C)CCO3)C5)cc2C)cn1 (stereo not shown) [Compound 48]
49 | < 100 | Cc1ccc(Oc2ccc(Nc3ncnc4sc5c(c34)CCN(C(=O)/C=C/CNCc3cc(C)n[nH]3)C5)cc2C)cn1 [Compound 49]
50 | < 100 | Cc1ccc(Oc2ccc(Nc3ncnc4sc5c(c34)CCN(C(=O)/C=C/CNCc3ccsc3)C5)cc2C)cn1 [Compound 52]
51 | < 100 | Cc1ccc(Oc2ccc(Nc3ncnc4sc5c(c34)CCN(C(=O)/C=C/CN3CC(O)C3)C5)cc2C)cn1 [Compound 53]
52 | < 100 | Cc1ccc(Oc2ccc(Nc3ncnc4sc5c(c34)CCN(C(=O)/C=C/CNC3CCC3)C5)cc2C)cn1 [Compound 54]
